In data set [1] the test system is Rattus norvegicus. Description: Antiinflammatory activity against carrageenan-induced acute paw edema Sprague-Dawley rat inflammatory model assessed as reduction of paw volume at 100 mg/kg, po after 3 hrs relative to control. The class given is functional. Also noted: scale not given: the % may be the effect or the level left. In general terms: Carrageenan injected into the paw causes an acute inflammation.

In data set [2] the test system is Rattus norvegicus. Description: Antiinflammatory activity against formalin-induced chronic paw edema rat inflammatory model assessed as reduction of paw volume at 100 mg/kg, po after 1 day relative to control. Also noted: scale not given: the % may be the effect or the level left. The class given is functional.
In data set [3] the test system is Rattus norvegicus. The data set can be described thus: Antiinflammatory activity against formalin-induced chronic paw edema rat inflammatory model assessed as reduction of paw volume at 100 mg/kg, po after 2 days relative to control. The class given is functional. Also noted: scale not given: the % may be the effect or the level left.
Data set [4] has as its system Rattus norvegicus. The data set can be described thus: Antiinflammatory activity against formalin-induced chronic paw edema rat inflammatory model assessed as reduction of paw volume at 100 mg/kg, po after 3 days relative to control. The class given is functional. Also noted: scale not given: the % may be the effect or the level left.
The subject of data set [5] is Rattus norvegicus. The data set can be described thus: Antiinflammatory activity against formalin-induced chronic paw edema rat inflammatory model assessed as reduction of paw volume at 100 mg/kg, po after 5 days relative to control. The class given is functional. Also noted: scale not given: the % may be the effect or the level left.
The target in data set [6] is Prostaglandin G/H synthase 1 (Homo sapiens) (UniProt P23219). Description: Inhibition of COX1 at 10 uM.
Data set [7] addresses T1, Prostaglandin G/H synthase 2 (Homo sapiens) (UniProt P35354).
T1 sequence (whole entry): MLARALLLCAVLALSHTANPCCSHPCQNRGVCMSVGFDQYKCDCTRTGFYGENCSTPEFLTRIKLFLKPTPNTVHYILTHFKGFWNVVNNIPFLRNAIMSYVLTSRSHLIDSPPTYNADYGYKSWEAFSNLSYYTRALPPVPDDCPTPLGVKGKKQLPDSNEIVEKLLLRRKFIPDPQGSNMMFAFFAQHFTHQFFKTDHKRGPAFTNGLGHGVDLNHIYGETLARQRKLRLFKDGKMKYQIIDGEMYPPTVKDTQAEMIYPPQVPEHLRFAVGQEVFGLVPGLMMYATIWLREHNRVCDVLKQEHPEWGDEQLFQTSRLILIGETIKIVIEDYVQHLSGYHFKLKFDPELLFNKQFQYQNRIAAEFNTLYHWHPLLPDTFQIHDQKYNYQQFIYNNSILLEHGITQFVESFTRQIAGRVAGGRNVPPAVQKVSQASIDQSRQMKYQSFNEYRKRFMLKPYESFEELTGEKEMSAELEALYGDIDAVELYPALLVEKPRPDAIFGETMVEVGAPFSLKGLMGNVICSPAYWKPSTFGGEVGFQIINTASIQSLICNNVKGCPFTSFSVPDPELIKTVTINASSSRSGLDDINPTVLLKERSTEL
Description: Inhibition of COX2 at 10 uM.

Data set [8] relates to Rattus norvegicus. The data set can be described thus: Antiinflammatory activity against formalin-induced chronic paw edema rat inflammatory model assessed as reduction of paw volume at 100 mg/kg, po after 4 days relative to control. The class given is functional. Also noted: scale not given: the % may be the effect or the level left.
In data set [9] the test system is Rattus norvegicus. Description: Toxic gastric-ulcerogenic effect in Sprague-Dawley rat assessed as lesion score at 100 mg/kg, po after 7 days. The class given is toxicity, organism-based. Also noted: dose 100 mg/kg, route oral. As to conditions: in vivo, 168 h.
For data set [10], the system named is Rattus norvegicus. Description: Antiinflammatory activity against formalin-induced chronic paw edema rat inflammatory model assessed as reduction of paw volume at 5 mg/kg, po after 1 day relative to control. Also noted: scale not given: the % may be the effect or the level left. The class given is functional.
For data set [11], the system named is Rattus norvegicus. Description: Antiinflammatory activity against formalin-induced chronic paw edema rat inflammatory model assessed as reduction of paw volume at 5 mg/kg, po after 2 days relative to control. The class given is functional. Also noted: scale not given: the % may be the effect or the level left.
Data set [12] relates to Rattus norvegicus. Description: Antiinflammatory activity against formalin-induced chronic paw edema rat inflammatory model assessed as reduction of paw volume at 5 mg/kg, po after 3 days relative to control. The class given is functional. Also noted: scale not given: the % may be the effect or the level left.
Data set [13] relates to Rattus norvegicus. The data set can be described thus: Antiinflammatory activity against formalin-induced chronic paw edema rat inflammatory model assessed as reduction of paw volume at 5 mg/kg, po after 4 days relative to control. The class given is functional. Also noted: scale not given: the % may be the effect or the level left.
Data set [14] concerns Rattus norvegicus. Description: Antiinflammatory activity against formalin-induced chronic paw edema rat inflammatory model assessed as reduction of paw volume at 5 mg/kg, po after 5 days relative to control. The class given is functional. Also noted: scale not given: the % may be the effect or the level left.
The subject of data set [15] is Rattus norvegicus. The data set can be described thus: Antiinflammatory activity against carrageenan-induced acute paw edema Sprague-Dawley rat inflammatory model assessed as reduction of paw volume at 5 mg/kg, po after 3 hrs relative to control. Also noted: scale not given: the % may be the effect or the level left. The class given is functional.
The subject of data set [16] is Rattus norvegicus. The data set can be described thus: Antiinflammatory activity against formalin-induced chronic paw edema rat inflammatory model assessed as reduction of paw volume at 50 mg/kg, po after 1 day relative to control. The class given is functional. Also noted: scale not given: the % may be the effect or the level left.
Data set [17] has as its system Rattus norvegicus. Description: Antiinflammatory activity against formalin-induced chronic paw edema rat inflammatory model assessed as reduction of paw volume at 50 mg/kg, po after 2 days relative to control. Also noted: scale not given: the % may be the effect or the level left. The class given is functional.
Data set [18] concerns Rattus norvegicus. Description: Antiinflammatory activity against formalin-induced chronic paw edema rat inflammatory model assessed as reduction of paw volume at 50 mg/kg, po after 3 days relative to control. The class given is functional. Also noted: scale not given: the % may be the effect or the level left.
For data set [19], the system named is Rattus norvegicus. Description: Antiinflammatory activity against formalin-induced chronic paw edema rat inflammatory model assessed as reduction of paw volume at 50 mg/kg, po after 4 days relative to control. The class given is functional. Also noted: scale not given: the % may be the effect or the level left.
Data set [20] concerns Rattus norvegicus. The data set can be described thus: Antiinflammatory activity against formalin-induced chronic paw edema rat inflammatory model assessed as reduction of paw volume at 50 mg/kg, po after 5 days relative to control. The class given is functional. Also noted: scale not given: the % may be the effect or the level left.
For data set [21], the system named is Rattus norvegicus. Description: Antiinflammatory activity against carrageenan-induced acute paw edema Sprague-Dawley rat inflammatory model assessed as reduction of paw volume at 50 mg/kg, po after 3 hrs relative to control. The class given is functional. Also noted: scale not given: the % may be the effect or the level left.

Structures are written as SMILES.

Sequence of Prostaglandin G/H synthase 1 (Homo sapiens) (P23219 whole entry): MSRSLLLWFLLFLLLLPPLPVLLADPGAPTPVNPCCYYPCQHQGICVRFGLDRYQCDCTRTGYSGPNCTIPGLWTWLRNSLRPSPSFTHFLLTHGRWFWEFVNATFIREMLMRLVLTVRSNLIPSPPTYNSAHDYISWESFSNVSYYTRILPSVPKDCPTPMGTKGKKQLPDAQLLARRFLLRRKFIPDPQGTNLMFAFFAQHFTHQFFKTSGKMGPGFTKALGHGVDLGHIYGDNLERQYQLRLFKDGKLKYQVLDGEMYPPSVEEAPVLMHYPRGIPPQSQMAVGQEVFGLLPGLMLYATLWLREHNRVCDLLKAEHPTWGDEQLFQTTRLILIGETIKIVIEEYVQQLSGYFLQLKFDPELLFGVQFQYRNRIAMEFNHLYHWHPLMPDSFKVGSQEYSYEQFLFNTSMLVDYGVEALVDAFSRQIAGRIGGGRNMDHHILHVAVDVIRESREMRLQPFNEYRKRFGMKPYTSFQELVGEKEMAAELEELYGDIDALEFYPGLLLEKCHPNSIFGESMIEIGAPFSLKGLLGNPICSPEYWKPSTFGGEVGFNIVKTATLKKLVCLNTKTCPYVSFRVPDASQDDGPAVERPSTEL

Turning to `CCOC(=O)Nc1nc(C)c(/C(=N\O)c2ccc(S(C)(=O)=O)cc2)s1`, the Activity in the data set with Rattus norvegicus [1] turned out to be 69%; in the data set with Rattus norvegicus [2], 29%; in the data set with Rattus norvegicus [3], 78%; in the data set on Rattus norvegicus [4], 72%; with Rattus norvegicus [5], 5%; in the data set on Rattus norvegicus [8], 47%. Moreover, the results for the inhibition in [6] and in [7] were -3.61% and 8.91%, respectively.
As for `CC(=O)Oc1ccccc1C(=O)O` [ASPIRIN], the Activity in the data set with Rattus norvegicus [9] was found to be 5 mm.
Turning to `O=C(Nc1nc(-c2ccccc2)c(C(=O)C(=O)c2sc(NC(=O)c3ccccc3)nc2-c2ccccc2)s1)c1ccccc1`, the Activity in the data set with Rattus norvegicus [1] is given as 73%; in the data set on Rattus norvegicus [2] it was 88%; with Rattus norvegicus [3], 92%; in the data set on Rattus norvegicus [4], 84%; in the data set on Rattus norvegicus [5] it was 41%; in the data set with Rattus norvegicus [9] it was 12 mm. For the same molecule, the Activity in the data set with Rattus norvegicus [8] turned out to be 38%. For the same molecule, the inhibition in [6] was 6.31%; in data set [7], 19.3%.
For `C[C@@H]1C[C@H]2[C@@H]3CCC4=CC(=O)C=C[C@]4(C)[C@@]3(F)[C@@H](O)C[C@]2(C)[C@@]1(O)C(=O)CO` [DEXAMETHASONE], the Activity came to 70% in the data set on Rattus norvegicus [10]; 92% in the data set with Rattus norvegicus [11]; 96% in the data set with Rattus norvegicus [12]; 89% with Rattus norvegicus [13]; 94% in the data set with Rattus norvegicus [14]; 85% in the data set with Rattus norvegicus [15].
As for `CS(=O)(=O)c1ccc(C(=O)c2sc(N3CCOCC3)nc2-c2ccccc2)cc1`, the Activity in the data set on Rattus norvegicus [1] is given as 63%; in the data set on Rattus norvegicus [2], 88%; with Rattus norvegicus [3], 44%; in the data set on Rattus norvegicus [4], 42%; in the data set on Rattus norvegicus [5], 27%; in the data set with Rattus norvegicus [8], 38%. In addition, the inhibition is -5.91% in [6] and 10.4% in data set [7].
With `CS(=O)(=O)c1ccc(C2=C(c3ccccc3)C(=O)OC2)cc1` [ROFECOXIB], the Activity is listed as 39% with Rattus norvegicus [16]; 32% with Rattus norvegicus [17]; 35% in the data set on Rattus norvegicus [18]; 29% in the data set on Rattus norvegicus [19]; 30% in the data set with Rattus norvegicus [20]; 40% in the data set on Rattus norvegicus [21].
Consider `CNc1nc(N(C)C)c(C(=O)/C(=N/OC)C(=O)OC)s1`, for which the Activity in the data set on Rattus norvegicus [1] is listed as 83%; in the data set on Rattus norvegicus [2], 96%; in the data set on Rattus norvegicus [3], 90%; in the data set with Rattus norvegicus [4], 95%; in the data set with Rattus norvegicus [5] it was 66%; in the data set with Rattus norvegicus [8] it was 72%. Besides, the inhibition in data set [6] is -6.25%; in [7], 19.5%.
Take `COC(=O)Nc1nc(N(C)C)c(C(=O)c2ccc(S(C)(=O)=O)cc2)s1`: the Activity is on record as 30% in the data set with Rattus norvegicus [1]; 29% with Rattus norvegicus [2]; 40% in the data set with Rattus norvegicus [3]; 26% in the data set on Rattus norvegicus [4]; 0% in the data set with Rattus norvegicus [5]; 43% in the data set with Rattus norvegicus [8]. Moreover, the inhibition in [6] turned out to be 4.13%; in [7] it was 15.2%.
For the molecule `CC(C)Cc1ccc(C(C)C(=O)O)cc1` (stereo not given) [IBUPROFEN], in the data set on Rattus norvegicus [9], the Activity is listed as 12 mm.

Usually inhibition stands for the relative decrease from the control value, in per cent.

The record behind these values is ChEMBL document CHEMBL1157213, “2-Amino-5-thiazolyl motif: a novel scaffold for designing anti-inflammatory agents of diverse structures” (Eur J Med Chem, 2008).
